The values below come from patent US20160220464A1 (WUHAN OPTICS VALLEY BRIDGEBIOMED INTERNATIONAL CORPORATION, priority 2013, published 2016).

Like-named read-outs stand apart in the source and are kept apart here. Where no end group is shown, it is not given here.

What all share (assay type): cell-based
Assay [1] deals with human aortic smooth muscle cells (HASMC). The experiment in a line: PG subtype secretion by EIA in HASMC. The following applies: 10 nM, 1 μM BK set as 100%.
Assay [2] has as its system human primary vein endothelial cells (HPVEC). The experiment in a line: PG subtype secretion by EIA in HPVEC. Conditions: 10 nM, 1 μM BK set as 100%. How it is done: In order to study of prostaglandin subtypes secretion triggered by activation of B2 receptor by these three compounds, human primary vein endothelial cells (HPVEC) and human aortic smooth muscle cells (HASMC) were used for PG secretion, following the same protocol above; 10 nM of these compounds, YLB-1, YLB-2, YLB-3 was added. […] These percentage values above were all calibrated with respect to bradykinin.

For a further assay, the target named is T1, BK B2 receptor (Homo sapiens, UniProt P30411).
T1 construct: The cell strains used in the study were human primary vein endothelial cells (HPVEC) and human aortic smooth muscle cells (HASMC); endogenous in cells; host or cells: human primary vein endothelial cells (HPVEC) and human aortic smooth muscle cells (HASMC)
T1 sequence (P30411 1-391): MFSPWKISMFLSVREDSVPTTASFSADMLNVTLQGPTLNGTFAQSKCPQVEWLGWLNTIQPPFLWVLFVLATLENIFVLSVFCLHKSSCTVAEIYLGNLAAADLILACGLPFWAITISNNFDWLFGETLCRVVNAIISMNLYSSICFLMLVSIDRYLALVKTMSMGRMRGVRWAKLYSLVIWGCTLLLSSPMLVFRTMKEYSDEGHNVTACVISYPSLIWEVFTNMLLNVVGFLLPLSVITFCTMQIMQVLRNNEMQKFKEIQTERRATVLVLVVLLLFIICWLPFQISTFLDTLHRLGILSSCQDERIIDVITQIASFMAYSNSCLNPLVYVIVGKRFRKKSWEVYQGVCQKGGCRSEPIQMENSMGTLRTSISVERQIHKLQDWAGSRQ
The experiment in a line: Relative amount of PG secretion in cell supernatant by enzyme immunoassay (EIA). The following applies: 1 h, 1 μM BK set as 100%; for activation at 0.0001 µM: 0.1 nM; for activation at 0.001 µM: 1 nM; for activation at 0.01 µM: 10 nM; for activation at 0.03 µM: 30 nM; for activation at 0.1 µM: 100 nM; for activation at 0.3 µM: 300 nM. On the procedure: YLB-01, YLB-02 and YLB-03 were selected for the study as described below in Table 1, and BK was used as control. Implantation Two cell lines were transferred into T-75 cell culture flask, and then the instructions of PG kit were strictly followed when cells have reached the appropriate density. Day 1 Cells were seeded in 24 well dishes with minimum medium and allowed to adhere overnight. Day 2 Cells were starved in the serum-free conditioned medium. […] The supernatant was collected after incubation for later use. Day 4 24 well dishes were washed and then dyed for 45-90 min, and then the OD value was measured for analysis. […] In order to detect endogenous prostaglandin, enzyme immunoassay (EIA) was used to determine the amount of prostaglandin and subtypes thereof in the cell supernatant described above.

Another assay concerns the target T2, B2 receptor (Homo sapiens, UniProt P30411).
T2 construct: The cell strains used in the study were human primary vein endothelial cells (HPVEC) and human aortic smooth muscle cells (HASMC); endogenous in cells; host or cells: human primary vein endothelial cells (HPVEC) and human aortic smooth muscle cells (HASMC)
T2 sequence (P30411 1-391): T1 sequence (P30411 1-391)
The experiment in a line: Relative PG secretion with B2 receptor inhibitor HOE-140. The following applies: 1 μM BK set as 100%. How it is done: Two different cell lines were transferred into T-75 cell culture flask, and then the instructions of PG kit were strictly followed when cells have reached the appropriate density. Day 1. Cells were seeded in 24 well dishes with minimum medium and allowed to adhere overnight. Day 2. Cells were starved in the serum-free conditioned medium. Day 3. […] Cells were incubated at 37° C. for 1 h. The supernatant was collected after incubation for later use. Day 4. 24 well dishes were washed and then dyed for 45-90 min, and then the quantitative analysis was carried out.

In assay [3] the target is T3, bradykinin (BK) B2 receptors (Homo sapiens, UniProt P30411).
T3 construct: The cell strains used in the study were human primary vein endothelial cells (HPVEC) and human aortic smooth muscle cells (HASMC); endogenous in cells; host or cells: human primary vein endothelial cells (HPVEC) and human aortic smooth muscle cells (HASMC)
T3 sequence (P30411 1-391): T1 sequence (P30411 1-391)
Kind of assay: PG secretion by BK B2 receptor agonists (PG kit, OD), EC50 and Emax. The following applies: HASMC; for EC50: 1 h incubation at 37° C. How it is done:
Implantation Two cell lines were transferred into T-75 cell culture flask, and then the instructions of PG kit were strictly followed when cells have reached the appropriate density. Day 1 Cells were seeded in 24 well dishes with minimum medium and allowed to adhere overnight. Day 2 Cells were starved in the serum-free conditioned medium. Day 3 Minimum medium were used, and YLB-01, YLB-02 and YLB-03 were added to the medium, in which the concentration was 0.1 nM, 1 nM, 10 nM, 30 nM, 100 nM, 300 nM, 1 μM, 3 μM and 10 μM, respectively; the cells were incubated at 37° C. for 1 h. The supernatant was collected after incubation for later use. Day 4 24 well dishes were washed and then dyed for 45-90 min, and then the OD value was measured for analysis. The cell strains used in the study were human primary vein endothelial cells (HPVEC) and human aortic smooth muscle cells (HASMC).

Consider `COc1nc2c(OCc3c(Cl)ccc(N(C)C(=O)CNC(=O)CCc4ccc(NC(C)=O)nc4)c3Cl)cccc2n1Cc1ccccn1` [YLB-02], for which, in assay [1], the PGD2 entry was “undetectable”, the PGE2 worked out at 26.33 ± 6.78% and the PGF-2a turned out to be 7.1 ± 3.41%. In assay [2], the PGD2 result is given as “undetectable”, the PGE2 was determined as 34.15 ± 9.54% and the PGF-2a entry is listed as “undetectable”. At BK B2 receptor, this compound had an activation at 0.0001 µM of 0%, an activation at 0.001 µM of 15.2 ± 3.36%, an activation at 0.01 µM of 26.4 ± 6.06% and an activation at 0.03 µM of approximately 40%. On BK B2 receptor, this compound returned an activation at 0.1 µM of 65.6 ± 8.1%, an activation at 0.3 µM of 67.3 ± 7.02%, an activation at 1 µM of 66.9 ± 8.11% and an activation at 3 µM of 70.4 ± 5.06%. Besides, the activation at 10 µM on BK B2 receptor stood at 65.5 ± 5.78%. Also, at B2 receptor (agonist 0.1 nM + HOE-140 1 μM), the “Relative PG Secretion Amount with 1 μM HOE-140” value (from here on “Relative PG Secretion Amount”) is 3.65 ± 2.77%. In addition, the “Relative PG Secretion Amount” value on B2 receptor (agonist 1 nM + HOE-140 1 μM) worked out at 0.21 ± 4.42%. For the same compound, the “Relative PG Secretion Amount” value at B2 receptor (agonist 10 nM + HOE-140 1 μM) was 5.60 ± 3.43%. Further, the “Relative PG Secretion Amount” value at B2 receptor (agonist 30 nM + HOE-140 1 μM) is reported as 3.33 ± 1.88%. Besides, the “Relative PG Secretion Amount” value at B2 receptor (agonist 100 nM + HOE-140 1 μM) is 0.43 ± 4.16%. The “Relative PG Secretion Amount” value on B2 receptor (agonist 300 nM + HOE-140 1 μM) is 1.05 ± 2.39%. For the same compound, the “Relative PG Secretion Amount” value on B2 receptor (agonist 1 μM + HOE-140 1 μM) was determined as 2.87 ± 3.04%. The “Relative PG Secretion Amount” value at B2 receptor (agonist 3 μM + HOE-140 1 μM) came out at 4.25 ± 2.06%. Besides, the “Relative PG Secretion Amount” value on B2 receptor (agonist 10 μM + HOE-140 1 μM) amounted to 10.1 ± 4.43%. In addition, the EC50 in assay [3] was 40.6 ± 4.19 nM. For the same compound, the Emax in assay [3] (relative to BK, read-out: Emax) amounted to 70%. For the same compound, the Emax in assay [3] (relative to BK) turned out to be 70.44 ± 5.06%.

With `CNC(=O)N1CCN(CCC(=O)NCC(=O)N(C)c2ccc(Cl)c(COc3cccc4c3nc(OC)n4Cc3ccccn3)c2Cl)CC1` [YLB-03, 4-{2-[({[2,4-Dichloro-3-(2-methoxy-1-pyridin-2-ylmethyl-1H-benzoimidazol-4-yloxymethyl)-phenyl]-methyl-carbamoyl}-methyl)-carbamoyl]-ethyl}-piperazine-1-carboxylic acid methylamide], the PGD2 result in assay [1] and in assay [2] was “undetectable” throughout. The results for the PGE2 in assay [1] and in assay [2] were 27.83 ± 10.66% and 31.04 ± 8.49%, respectively. Also, the PGF-2a in assay [1] is 8.43 ± 3.57%; in assay [2], “undetectable”. At BK B2 receptor, this compound registered an activation at 0.0001 µM of 0.44 ± 1.22%. Moreover, the activation at 0.001 µM at BK B2 receptor was determined as 10.3 ± 2.3%. Also, the activation at 0.01 µM at BK B2 receptor is 47.3 ± 4.22%. In addition, at BK B2 receptor, the activation at 0.03 µM is approximately 55%. The same compound yielded an activation at 0.1 µM on BK B2 receptor of 71 ± 4.57%. In addition, the activation at 0.3 µM at BK B2 receptor came to 86.2 ± 8.51%. Besides, the activation at 1 µM at BK B2 receptor turned out to be 85 ± 4.83%. Moreover, on BK B2 receptor, the activation at 3 µM is 95.6 ± 7.21%. The same compound yielded an activation at 10 µM on BK B2 receptor of 103 ± 9.06%. Also, the “Relative PG Secretion Amount” value came out at 0.54 ± 3.59% on B2 receptor (agonist 0.1 nM + HOE-140 1 μM); 2.65 ± 3.81% at B2 receptor (agonist 1 nM + HOE-140 1 μM); 5.64 ± 4.05% at B2 receptor (agonist 10 nM + HOE-140 1 μM); 4.90 ± 4.83% at B2 receptor (agonist 30 nM + HOE-140 1 μM); 3.97 ± 2.75% on B2 receptor (agonist 100 nM + HOE-140 1 μM); 0.48 ± 3.50% at B2 receptor (agonist 300 nM + HOE-140 1 μM). The “Relative PG Secretion Amount” value at B2 receptor (agonist 1 μM + HOE-140 1 μM) was 5.14 ± 2.67%; on B2 receptor (agonist 3 μM + HOE-140 1 μM), 7.33 ± 4.12%; on B2 receptor (agonist 10 μM + HOE-140 1 μM) it was 26.08 ± 7.56%. In addition, the EC50 in assay [3] was 26.2 ± 2.87 nM. The Emax in assay [3] (relative to BK, read-out: Emax) was 103%; in assay [3] (relative to BK), 103.48 ± 9.06%.

Consider “RPPGFSPFR [BK, Bradykinin, reference compound]”, for which the Emax in assay [3] was 101 ± 5.5%.

Usually EC50 stands for the concentration that produces a half-maximal response. High values mean lower potency in that assay, low ones higher potency in that assay. One may read the Emax as the greatest response seen or fitted, relative to the assay's reference.
